The test system of this data set is Jurkat cells. Briefly: (r) Cell cytotoxicity assay. It is filed as cell-based, human. The note with it: 24 hours. The protocol:
1×10^5 Jurkat cells (immortalised human T lymphocytes) are added to the appropriate number of wells of a 96 well plate in 100 μL of media (RPMI supplemented with 10% foetal bovine serum). 1 μL of DMSO control (final concentration 1.0% v/v) or test compound (final concentration 20, 5 or 1 μg/mL) is added to the wells and incubated at 37° C., 5% CO2. After 24 hours, the plate is centrifuged at 1200 rpm for 3 minutes and the supernatant discarded. Cells are then resuspended in 150 μL (final concentration 7.5 μg/mL) of propidium iodide (PI) in PBS and incubated at 37° C., 5% CO2 for 15 minutes. After 15 minutes, cells are analysed by flow cytometry (BD accuri) using the FL3 window. The % viability is calculated as the % of cells that are PI negative in the test wells normalised to the DMSO control.

Each structure is given as a SMILES string.

On to `COc1cc(Nc2cc(Oc3ccc(NC(=O)Nc4cc(C(C)(C)C)cc(C(N)=O)c4OC)c4ccccc34)ccn2)ccc1C(=O)O` [Example 3, 4-((4-((4-(3-(5-(tert-Butyl)-3-carbamoyl-2-methoxyphenyl)ureido)naphthalen-1-yl)oxy)pyridin-2-yl)amino)-2-methoxybenzoic acid], for which the “% Viability at 1 μg/mL” value was determined as 93.4%, the “% Viability at 5 μg/mL” value is reported as 95.9% and the “% Viability at 20 μg/mL” value was found to be 91.9%.

In the case of `COc1cc(Nc2cc(Oc3ccc(NC(=O)Nc4cc(C(C)(C)C)cc(NS(C)(=O)=O)c4OC)c4ccccc34)ccn2)ccc1C(=O)NCCCC[C@H](N)C(=O)O` [17(bu), (S)-2-Amino-6-(4-((4-((4-(3-(5-(tert-butyl)-2-methoxy-3-(methylsulfonamido)phenyl)-ureido)naphthalen-1-yl)oxy)pyridin-2-yl)amino)-2-methoxybenzamido)hexanoic acid], the “% Viability at 1 μg/mL” value stood at 92.6%, the “% Viability at 5 μg/mL” value is reported as 92.6% and the “% Viability at 20 μg/mL” value was 91.7%.

For the compound `COc1cc(Nc2cc(Oc3ccc(NC(=O)Nc4cc(C(C)(C)C)cc(NS(C)(=O)=O)c4OC)c4ccccc34)ccn2)cc(OC)c1C(=O)NCC1CCN(C)CC1` [17(ca), 4-((4-((4-(3-(5-(tert-Butyl)-2-methoxy-3-(methylsulfonamido)phenyl)ureido)naphthalen-1-yl)oxy)pyridin-2-yl)amino)-2,6-dimethoxy-N-((1-methylpiperidin-4-yl)methyl)benzamide], the “% Viability at 1 μg/mL” value amounted to 92.6%, the “% Viability at 5 μg/mL” value is 94.0% and the “% Viability at 20 μg/mL” value came out at 75.8%.

Consider `COc1cc(Nc2cc(Oc3ccc(NC(=O)Nc4cc(C(C)(C)C)cc(NS(C)(=O)=O)c4OC)c4ccccc34)ccn2)cc(OC)c1C(=O)NCCCN1CCOCC1` [Example 23, 4-((4-((4-(3-(5-(tert-Butyl)-2-methoxy-3-(methylsulfonamido)phenyl)ureido)naphthalen-1-yl)oxy)pyridin-2-yl)amino)-2,6-dimethoxy-N-(3-morpholinopropyl)benzamide], for which the “% Viability at 1 μg/mL” value amounted to 92.4%, the “% Viability at 5 μg/mL” value is on record as 88.9% and the “% Viability at 20 μg/mL” value came out at 89.8%.

Regarding `COc1c(NC(=O)Nc2ccc(Oc3ccnc(Nc4ccc(P(C)(=O)O)c(N(C)C)c4)c3)c3ccccc23)cc(C(C)(C)C)cc1NS(C)(=O)=O` [Example 68, [4-[[4-[[4-[[5-tert-Butyl-3-(methanesulfonamido)-2-methoxy-phenyl]carbamoylamino]-1-naphthyl]oxy]-2-pyridyl]amino]-2-(dimethylamino)phenyl]-methyl-phosphinic acid], the “% Viability at 1 μg/mL” value was found to be 95.6%, the “% Viability at 5 μg/mL” value is listed as 92.7% and the “% Viability at 20 μg/mL” value came to 90.2%.

Take `COc1cc(Nc2cc(Oc3ccc(NC(=O)Nc4cc(C(C)(C)C)cc(NS(C)(=O)=O)c4OC)c4ccccc34)ccn2)ccc1C(=O)NC(C)CN1CCN(C)CC1` (stereo not drawn) [17(bl), 4-((4-((4-(3-(5-(tert-Butyl)-2-methoxy-3-(methylsulfonamido)phenyl)ureido)naphthalen-1-yl)oxy)pyridin-2-yl)amino)-2-methoxy-N-(1-(4-methylpiperazin-1-yl)propan-2-yl)benzamide]: the “% Viability at 1 μg/mL” value was determined as 103.6%, the “% Viability at 5 μg/mL” value is 0.2% and the “% Viability at 20 μg/mL” value worked out at 0.5%.

Consider `COc1cc(Nc2cc(Oc3ccc(NC(=O)Nc4cc(C(C)(C)C)cc(NS(C)(=O)=O)c4OC)c4ccccc34)ccn2)ccc1C(=O)NCCC(=O)N1C[C@H](O)[C@@H](O)[C@H](O)[C@H]1CO` [17(cf), 4-((4-((4-(3-(5-(tert-Butyl)-2-methoxy-3-(methylsulfonamido)phenyl)ureido)naphthalen-1-yl)oxy)pyridin-2-yl)amino)-2-methoxy-N-(3-oxo-3-((2R,3R,4R,5S)-3,4,5-trihydroxy-2-(hydroxymethyl)piperidin-1-yl)propyl)benzamide], for which the “% Viability at 1 μg/mL” value is 96.7%, the “% Viability at 5 μg/mL” value is reported as 96.7% and the “% Viability at 20 μg/mL” value is listed as 96.8%.

As for `COc1cc(Nc2cc(Oc3ccc(NC(=O)Nc4cc(C(C)(C)C)cc(NS(C)(=O)=O)c4OC)c4ccccc34)ccn2)ccc1C(=O)NCCOCCOCCC(=O)O` [17(x), 3-[2-[2-[[4-[[4-[[4-[[5-tert-butyl-3-(methanesulfonamido)-2-methoxyphenyl]carbamoyl-amino]-1-naphthyl]oxy]-2-pyridyl]amino]-2-methoxy-benzoyl]amino]ethoxy]ethoxy]propanoic acid], the “% Viability at 1 μg/mL” value turned out to be 95.4%, the “% Viability at 5 μg/mL” value came out at 94.2% and the “% Viability at 20 μg/mL” value turned out to be 38.9%.

Take `COc1cc(Nc2cc(Oc3ccc(NC(=O)Nc4cc(C(C)(C)C)cc(NS(C)(=O)=O)c4OC)c4ccccc34)ccn2)ccc1C(=O)NCC(=O)O` [17(ar), 2-(4-((4-((4-(3-(5-(tert-Butyl)-2-methoxy-3-(methylsulfonamido)phenyl)ureido)naphthalen-1-yl)oxy)pyridin-2-yl)amino)-2-methoxybenzamido)acetic acid]: the “% Viability at 1 μg/mL” value amounted to 96.1%, the “% Viability at 5 μg/mL” value amounted to 96.2% and the “% Viability at 20 μg/mL” value stood at 95.3%.

On to `COc1cc(Nc2cc(Oc3ccc(NC(=O)Nc4cc(C(C)(C)C)cc(NS(C)(=O)=O)c4OC)c4ccccc34)ccn2)ccc1C(=O)NCC(CO)(CO)CO` [Example 38, 4-((4-((4-(3-(5-(tert-Butyl)-2-methoxy-3-(methylsulfonamido)phenyl)ureido)naphthalen-1-yl)oxy)pyridin-2-yl)amino)-N-(3-hydroxy-2,2-bis(hydroxymethyl)propyl)-2-methoxybenzamide], for which the “% Viability at 1 μg/mL” value was 90.0%, the “% Viability at 5 μg/mL” value was 63.7% and the “% Viability at 20 μg/mL” value is 6.0%.

Take `CCC(=O)NS(=O)(=O)c1ccc(Nc2nccc(Oc3ccc(NC(=O)Nc4cc(C(C)(C)C)cc(NS(C)(=O)=O)c4OC)c4ccccc34)n2)cc1OC` [17(bk), N-((4-((4-((4-(3-(5-(tert-Butyl)-2-methoxy-3-(methylsulfonamido)phenyl)ureido)-naphthalen-1-yl)oxy)pyrimidin-2-yl)amino)-2-methoxyphenyl)sulfonyl)propionamide]: the “% Viability at 1 μg/mL” value is 93.0%, the “% Viability at 5 μg/mL” value turned out to be 71.8% and the “% Viability at 20 μg/mL” value was found to be 65.6%.

Take `COc1cc(Nc2cc(Oc3ccc(NC(=O)Nc4cc(C(C)(C)C)cc(NS(C)(=O)=O)c4OC)c4ccccc34)ccn2)ccc1C(=O)NCC[N+]1([O-])CCOCC1` [Example 33, 4-(2-(4-((4-((4-(3-(5-(tert-Butyl)-2-methoxy-3-(methylsulfonamido)phenyl)ureido)naphthalen-1-yl)oxy)pyridin-2-yl)amino)-2-methoxybenzamido)ethyl)morpholine 4-oxide]: the “% Viability at 1 μg/mL” value is recorded as 104.1%, the “% Viability at 5 μg/mL” value is 95.5% and the “% Viability at 20 μg/mL” value is given as 69.3%.

Take `COc1cc(Nc2cc(Oc3ccc(NC(=O)Nc4cc(C(C)(C)C)cc(NS(C)(=O)=O)c4OC)c4ccccc34)ccn2)ccc1S(=O)(=O)CCCN1CCN(C)CC1` [17(ch), N-(5-(tert-Butyl)-2-methoxy-3-(3-(4-((2-((3-methoxy-4-((3-(4-methylpiperazin-1-yl)propyl)sulfonyl)phenyl)amino)pyridin-4-yl)oxy)naphthalen-1-yl)ureido)phenyl)methanesulfonamide]: the “% Viability at 1 μg/mL” value turned out to be 82.0%, the “% Viability at 5 μg/mL” value worked out at 10.2% and the “% Viability at 20 μg/mL” value amounted to 0.7%.

With `COc1cc(Nc2cc(Oc3ccc(NC(=O)Nc4cc(NS(C)(=O)=O)cc(C(C)(C)C)c4)c4ccccc34)ccn2)ccc1C(=O)NCCN1CCN(C)CC1` [17(bo), 4-((4-((4-(3-(3-(tert-Butyl)-5-(methylsulfonamido)phenyl)ureido)naphthalen-1-yl)oxy)pyridin-2-yl)amino)-2-methoxy-N-(2-(4-methylpiperazin-1-yl)ethyl)benzamide], the “% Viability at 1 μg/mL” value is given as 98.5%, the “% Viability at 5 μg/mL” value was 45.3% and the “% Viability at 20 μg/mL” value amounted to 14.0%.

In the case of `COc1cc(Nc2cc(Oc3ccc(NC(=O)Nc4cc(C(C)(C)C)cc(NS(C)(=O)=O)c4OC)c4ccccc34)ccn2)ccc1C(=O)NCCN1CCN(C(=O)CC[C@H](N)C(=O)O)CC1` [17(cl), (S)-2-Amino-5-(4-(2-(4-((4-((4-(3-(5-(tert-butyl)-2-methoxy-3-(methylsulfonamido)-phenyl)ureido)naphthalen-1-yl)oxy)pyridin-2-yl)amino)-2-methoxybenzamido)ethyl)piperazin-1-yl)-5-oxopentanoic acid], the “% Viability at 1 μg/mL” value came to 93.6%, the “% Viability at 5 μg/mL” value came to 94.0% and the “% Viability at 20 μg/mL” value is on record as 93.7%.

Turning to `COc1cc(Nc2cc(Oc3ccc(NC(=O)Nc4cc(C(C)(C)C)cc(NS(C)(=O)=O)c4OC)c4ccccc34)ccn2)ccc1C(=O)N[C@@H]1CCN(C)C1` [17(cq), (R)-4-((4-((4-(3-(5-(tert-Butyl)-2-methoxy-3-(methylsulfonamido)phenyl)ureido)-naphthalen-1-yl)oxy)pyridin-2-yl)amino)-2-methoxy-N-(1-methylpyrrolidin-3-yl)benzamide], the “% Viability at 1 μg/mL” value turned out to be 74.3%, the “% Viability at 5 μg/mL” value was found to be 9.0% and the “% Viability at 20 μg/mL” value was 0.7%.

For `COc1c(NC(=O)Nc2ccc(Oc3ccnc(Nc4ccc(C(=O)NCCCN5CCOCC5)c(O)c4)c3)c3ccccc23)cc(C(C)(C)C)cc1NS(C)(=O)=O` [Example 29, 4-((4-((4-(3-(5-(tert-Butyl)-2-methoxy-3-(methylsulfonamido)phenyl)ureido)naphthalen-1-yl)oxy)pyridin-2-yl)amino)-2-hydroxy-N-(3-morpholinopropyl)benzamide], the “% Viability at 1 μg/mL” value came to 101.2%, the “% Viability at 5 μg/mL” value is recorded as 46.6% and the “% Viability at 20 μg/mL” value turned out to be 2.0%.

(Values after US10125100B2, “Kinase inhibitors” (Respivert Limited, priority 2014, dated 2018).)
